Test results as given in PubChem BioAssay AID1259407 (Chemical Carcinogenesis Research Information System (CCRIS), 2018).
Active and inactive are the calls of the source. The rule behind the calls is not given here.

Tested on: CCRIS mutagenicity, Ames/micronucleus/aberration tests
Assay: CCRIS mutagenicity studies
[1] = Test System: AMES SALMONELLA TYPHIMURIUM, Strain/Indicator: TA97, Metabolic Activation: NONE, Method: STANDARD PLATE
[2] = Test System: AMES SALMONELLA TYPHIMURIUM, Strain/Indicator: TA98, Metabolic Activation: NONE, Method: STANDARD PLATE
[3] = Test System: AMES SALMONELLA TYPHIMURIUM, Strain/Indicator: TA100, Metabolic Activation: NONE, Method: STANDARD PLATE
[4] = Test System: AMES SALMONELLA TYPHIMURIUM, Strain/Indicator: TA100, Metabolic Activation: RAT, LIVER, S-9, AROCLOR 1254, Method: STANDARD PLATE

O=NN1CCCC1
mutagenic call [1]: inactive; negative | mutagenic call (Test System: AMES SALMONELLA TYPHIMURIUM, Strain/Indicator: TA97, Metabolic Activation: RAT, LIVER, S-9, AROCLOR 1254, Method: STANDARD PLATE): inactive; negative | mutagenic call [2]: inactive; negative | mutagenic call (Test System: AMES SALMONELLA TYPHIMURIUM, Strain/Indicator: TA98, Metabolic Activation: RAT, LIVER, S-9, AROCLOR 1254, Method: STANDARD PLATE): inactive; negative | mutagenic call (Test System: AMES SALMONELLA TYPHIMURIUM, Strain/Indicator: TA100, Metabolic Activation: HAMSTER, LIVER, S-9, Method: PREINCUBATION): active; positive | mutagenic call (Test System: AMES SALMONELLA TYPHIMURIUM, Strain/Indicator: TA100, Metabolic Activation: HUMAN, LIVER, S-9, Method: PREINCUBATION): active; positive | mutagenic call [3]: inactive; negative | mutagenic call (Test System: AMES SALMONELLA TYPHIMURIUM, Strain/Indicator: TA100, Metabolic Activation: PIG, LIVER, S-9, Method: PREINCUBATION): active; positive | mutagenic call (Test System: AMES SALMONELLA TYPHIMURIUM, Strain/Indicator: TA100, Metabolic Activation: RABBIT, LIVER, S-9, Method: STANDARD PLATE): inactive; negative | mutagenic call (Test System: AMES SALMONELLA TYPHIMURIUM, Strain/Indicator: TA100, Metabolic Activation: RABBIT, LUNG, S-9, Method: STANDARD PLATE): inactive; negative rabbit, lung, s-9 | mutagenic call (Test System: AMES SALMONELLA TYPHIMURIUM, Strain/Indicator: TA100, Metabolic Activation: RABBIT, NASAL, S-9, Method: STANDARD PLATE): active; positive | mutagenic call (Test System: AMES SALMONELLA TYPHIMURIUM, Strain/Indicator: TA100, Metabolic Activation: RAT, ESOPHAGUS, S-9, Method: PREINCUBATION): active; positive | mutagenic call (Test System: AMES SALMONELLA TYPHIMURIUM, Strain/Indicator: TA100, Metabolic Activation: RAT, FORESTOMACH, S-9, Method: PREINCUBATION): active; positive | mutagenic call (Test System: AMES SALMONELLA TYPHIMURIUM, Strain/Indicator: TA100, Metabolic Activation: RAT, GLANDULAR STOMACH, S-9, Method: PREINCUBATION): active; positive | mutagenic call (Test System: AMES SALMONELLA TYPHIMURIUM, Strain/Indicator: TA100, Metabolic Activation: RAT, LIVER, S-9, AROCLOR 1254, Method: PREINCUBATION): active; positive | mutagenic call [4]: inactive; negative | mutagenic call (Test System: AMES SALMONELLA TYPHIMURIUM, Strain/Indicator: TA100, Metabolic Activation: RAT, LIVER, S-9, Method: PREINCUBATION): inactive; negative | mutagenic call (Test System: AMES SALMONELLA TYPHIMURIUM, Strain/Indicator: TA100, Metabolic Activation: RAT, LIVER, S-9, Method: STANDARD PLATE): inactive; negative | mutagenic call (Test System: AMES SALMONELLA TYPHIMURIUM, Strain/Indicator: TA100, Metabolic Activation: RAT, LUNG, S-9, Method: STANDARD PLATE): inactive; negative | mutagenic call (Test System: AMES SALMONELLA TYPHIMURIUM, Strain/Indicator: TA100, Metabolic Activation: RAT, NASAL, S-9, Method: STANDARD PLATE): active; positive | mutagenic call (Test System: AMES SALMONELLA TYPHIMURIUM, Strain/Indicator: TA102, Metabolic Activation: RAT, LIVER, S-9, AROCLOR 1254, Method: PREINCUBATION): active; positive | mutagenic call (Test System: AMES SALMONELLA TYPHIMURIUM, Strain/Indicator: TA104, Metabolic Activation: RAT, LIVER, S-9, AROCLOR 1254, Method: PREINCUBATION): active; positive | mutagenic call (Test System: AMES SALMONELLA TYPHIMURIUM, Strain/Indicator: TA1530, Metabolic Activation: RAT LIVER, CYTOSOL, ISONIAZID, Method: PREINCUBATION): inactive; negative | mutagenic call (Test System: AMES SALMONELLA TYPHIMURIUM, Strain/Indicator: TA1530, Metabolic Activation: RAT LIVER, MICROSOMES, ISONIAZID, Method: PREINCUBATION): active; positive | mutagenic call (Test System: AMES SALMONELLA TYPHIMURIUM, Strain/Indicator: TA1530, Metabolic Activation: RAT, LIVER, S-9, Method: STANDARD PLATE): active; positive | mutagenic call (Test System: AMES SALMONELLA TYPHIMURIUM, Strain/Indicator: TA1535, Metabolic Activation: RAT, LIVER, MICROSOMES, Method: PREINCUBATION): active; positive | mutagenic call (Test System: AMES SALMONELLA TYPHIMURIUM, Strain/Indicator: TA1535, Metabolic Activation: RAT, LIVER, S-9, 3-METHYLCHOLANTHRENE, Method: STANDARD PLATE): inactive; negative | mutagenic call (Test System: AMES SALMONELLA TYPHIMURIUM, Strain/Indicator: TA1535, Metabolic Activation: RAT, LIVER, S-9, AROCLOR 1254, Method: PREINCUBATION): active; positive | mutagenic call (Test System: AMES SALMONELLA TYPHIMURIUM, Strain/Indicator: TA1535, Metabolic Activation: RAT, LIVER, S-9, ETHANOL, Method: STANDARD PLATE): active; positive | mutagenic call (Test System: AMES SALMONELLA TYPHIMURIUM, Strain/Indicator: TA1535, Metabolic Activation: RAT, LIVER, S-9, PHENOBARBITAL, Method: STANDARD PLATE): active; positive | mutagenic call (Test System: AMES SALMONELLA TYPHIMURIUM, Strain/Indicator: TA1535, Metabolic Activation: RAT, LIVER, S-9, PHENOBARBITONE AND BETA-NAPHTHOFLAVONE, Method: PREINCUBATION): active; positive | mutagenic call (Test System: AMES SALMONELLA TYPHIMURIUM, Strain/Indicator: TA1535, Metabolic Activation: RAT, LIVER, S-9, PHENOBARBITONE AND BETA-NAPHTHOFLAVONE, Method: STANDARD PLATE): active; positive | mutagenic call (Test System: AMES SALMONELLA TYPHIMURIUM, Strain/Indicator: TA1535, Metabolic Activation: RAT, LIVER, S-9, PYRAZOLE, Method: PREINCUBATION): active; positive | mutagenic call (Test System: AMES SALMONELLA TYPHIMURIUM, Strain/Indicator: TA1535, Metabolic Activation: RAT, LIVER, S-9, PYRAZOLE, Method: STANDARD PLATE): active; positive | mutagenic call (Test System: AMES SALMONELLA TYPHIMURIUM, Strain/Indicator: TA1975, Metabolic Activation: RAT, LIVER, S-9, AROCLOR 1254, Method: PREINCUBATION): active; positive | mutagenic call (Test System: AMES SALMONELLA TYPHIMURIUM, Strain/Indicator: TA2410, Metabolic Activation: NONE, Method: HOST-MEDIATED): inactive; negative | mutagenic call (Test System: AMES SALMONELLA TYPHIMURIUM, Strain/Indicator: TA2678, Metabolic Activation: NONE, Method: HOST-MEDIATED): inactive; negative | mutagenic call (Test System: Ames Salmonella typhimurium, Strain/Indicator: YG7108, Metabolic Activation: Rat, Liver, S-9, Phenobarbital/beta-naphtoflavone, Method: Standard plate): active; positive | mutagenic call (Test System: Ames Salmonella typhimurium, Strain/Indicator: YG7108pin3ERb5, Metabolic Activation: None, Method: Standard plate): active; positive | mutagenic call (Test System: CHINESE HAMSTER OVARY, Strain/Indicator: CHO-K1-BH4 (HGPRT), Metabolic Activation: RAT, LIVER, S-9, AROCLOR, Method: SUSPENSION/PLATE): active; positive | mutagenic call (Test System: CHINESE HAMSTER V-79, Strain/Indicator: V-79/8-AZAGUANINE, Metabolic Activation: RAT, LIVER, S-15, PHENOBARBITAL, Method: STANDARD PLATE): active; positive | mutagenic call (Test System: UDS RODENT HEPATOCYTES, Strain/Indicator: THY INCORP (NON-S-PHASE), Method: AUTORADIOGRAPHY): active; positive

Cc1c2cc(CO)ccc2nc2c3c(ccc12)[C@H](O)[C@@H](O)C=C3
mutagenic call [4]: active; positive

CC(=O)c1cc(C(C)(C)C)cc2c1CCC2(C)C
mutagenic call [1]: inactive; negative | mutagenic call (Test System: AMES SALMONELLA TYPHIMURIUM, Strain/Indicator: TA97, Metabolic Activation: RAT LIVER S-9, AROCLOR 1254, Method: STANDARD PLATE): inactive; negative | mutagenic call [2]: inactive; negative | mutagenic call (Test System: AMES SALMONELLA TYPHIMURIUM, Strain/Indicator: TA98, Metabolic Activation: RAT LIVER S-9, AROCLOR 1254, Method: STANDARD PLATE): inactive; negative | mutagenic call [3]: inactive; negative | mutagenic call (Test System: AMES SALMONELLA TYPHIMURIUM, Strain/Indicator: TA100, Metabolic Activation: RAT LIVER S-9, AROCLOR 1254, Method: STANDARD PLATE): inactive; negative | mutagenic call (Test System: AMES SALMONELLA TYPHIMURIUM, Strain/Indicator: TA102, Metabolic Activation: NONE, Method: STANDARD PLATE): inactive; negative | mutagenic call (Test System: AMES SALMONELLA TYPHIMURIUM, Strain/Indicator: TA102, Metabolic Activation: RAT LIVER S-9, AROCLOR 1254, Method: STANDARD PLATE): inactive; negative
